The source made the active and inactive calls. The calls are words filed in the database; no cut-off is given here.
Tests used:
Cytochrome P450 2C19 = Cytochrome P450 2C19 (Homo sapiens, UniProt P33261); test: Inhibition of CYP2C19; type: ADME
Cytochrome P450 2C9 = Cytochrome P450 2C9 (Homo sapiens, UniProt P11712); test: Inhibition of CYP2C9; type: ADME
Cytochrome P450 2D6 = Cytochrome P450 2D6 (Homo sapiens, UniProt P10635); test: Inhibition of CYP2D6; type: ADME
Cytochrome P450 1A2 = Cytochrome P450 1A2 (Homo sapiens, UniProt P05177); test: Inhibition of CYP1A2; type: ADME
Chain of Cytochrome P450 1A2 (P05177 whole entry): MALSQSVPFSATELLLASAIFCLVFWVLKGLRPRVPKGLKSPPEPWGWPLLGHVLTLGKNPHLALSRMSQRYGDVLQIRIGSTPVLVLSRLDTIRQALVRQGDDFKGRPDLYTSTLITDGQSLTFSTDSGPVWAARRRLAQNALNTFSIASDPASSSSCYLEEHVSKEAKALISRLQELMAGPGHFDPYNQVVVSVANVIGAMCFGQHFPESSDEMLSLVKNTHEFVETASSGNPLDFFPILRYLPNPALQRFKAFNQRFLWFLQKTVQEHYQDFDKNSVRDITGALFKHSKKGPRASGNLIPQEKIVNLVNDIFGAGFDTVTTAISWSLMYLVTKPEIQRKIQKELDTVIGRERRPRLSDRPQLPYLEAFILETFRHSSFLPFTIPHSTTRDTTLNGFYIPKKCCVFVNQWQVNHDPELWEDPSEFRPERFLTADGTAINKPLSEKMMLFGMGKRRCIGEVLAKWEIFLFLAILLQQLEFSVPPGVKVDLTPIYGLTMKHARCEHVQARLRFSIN

[1] = molecular target: RAC-alpha serine/threonine-protein kinase (Mus musculus, UniProt P31750); test: Inhibition of Akt phosphorylation in mouse Sal cells by Western blotting; type: cell-based
[2] = Antitumor activity against mouse Sal cells xenografted in BALB/c mouse assessed as tumor growth inhibition at 6 to 25 mg/kg, po BID administered 8 hrs apart measured within 5 days; type: functional; conditions: dose mg/kg 6-25
[3] = Antitumor activity against mouse Sal cells xenografted in po dosed BALB/c mouse assessed as minimum effective dose required for complete tumor growth inhibition administered BID 8 hrs apart measured within 5 days; type: functional; conditions: read-out: MED
Mus musculus [4] = test: Toxicity in BALB/c mouse xenografted with mouse Sal cells assessed as change in body weight at 25 mg/kg, po BID administered 8 hrs apart measured within 5 days relative to control; type: organism-based; parameters: dose 25 mg/kg, route oral; conditions: in vivo
Mus musculus [5] = test: Toxicity in BALB/c mouse xenografted with mouse Sal cells assessed as body weight loss at 25 mg/kg, po BID administered 8 hrs apart for 4 consecutive days measured within 5 days; type: organism-based; parameters: dose 25 mg/kg, route oral; conditions: in vivo
[6] = Antitumor activity against mouse Sal cells xenografted in BALB/c mouse assessed as tumor growth inhibition at 3.125 mg/kg, po BID for 4 days measured 2 hrs after final dose on day 5; type: functional; conditions: read-out: TGI
[7] = Antitumor activity against mouse Sal cells xenografted in BALB/c mouse assessed as tumor growth inhibition at 6.25 mg/kg, po BID for 4 days measured 2 hrs after final dose on day 5; type: functional; conditions: read-out: TGI
[8] = Antitumor activity against mouse Sal cells xenografted in BALB/c mouse assessed as tumor growth inhibition at 12.5 mg/kg, po BID for 4 days measured 2 hrs after final dose on day 5; type: functional; conditions: read-out: TGI
Mus musculus [9] = test: Inhibition of IGF1R phosphorylation in po dosed BALB/c mouse xenografted with mouse Sal cells at 3.125 to 12.5 mg/kg, po BID for 4 days measured 2 hrs after final dose on day 5 by Western blot analysis; type: functional, organism-based
Mus musculus [10] = test: Inhibition of Akt phosphorylation in po dosed BALB/c mouse xenografted with mouse Sal cells at 3.125 to 12.5 mg/kg, po BID for 4 days measured 2 hrs after final dose on day 5 by Western blot analysis; type: functional, organism-based
[11] = molecular target: Insulin receptor (Mus musculus) (UniProt P15208); test: Inhibition of insulin receptor phosphorylation in mouse Sal cells at 0.003 to 1 uM by Western blotting; type: cell-based
[12] = In vivo antitumor activity against human Rh41 cells assessed as tumor growth inhibition at 12.5 mg/kg BID for 14 consecutive days measured on day 60 post tumor implantation; type: functional; conditions: Rh41, 1440 h, read-out: TGI
[13] = molecular target: Aurora kinase B (Homo sapiens) (UniProt Q96GD4); test: Inhibition of Aurora B
Chain of Aurora kinase B (Homo sapiens) (Q96GD4 whole entry): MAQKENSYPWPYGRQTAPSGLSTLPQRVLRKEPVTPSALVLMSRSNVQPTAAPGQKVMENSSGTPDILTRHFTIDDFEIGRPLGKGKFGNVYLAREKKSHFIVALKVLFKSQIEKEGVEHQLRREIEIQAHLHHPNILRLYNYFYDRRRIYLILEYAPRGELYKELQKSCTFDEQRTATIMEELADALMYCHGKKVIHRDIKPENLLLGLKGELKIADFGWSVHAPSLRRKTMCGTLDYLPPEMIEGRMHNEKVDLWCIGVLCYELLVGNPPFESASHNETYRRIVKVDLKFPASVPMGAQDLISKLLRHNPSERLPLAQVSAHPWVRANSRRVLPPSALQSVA

[14] = molecular target: Macrophage-stimulating protein receptor (Homo sapiens) (UniProt Q04912); test: Inhibition of Ron
Chain of Macrophage-stimulating protein receptor (Homo sapiens) (Q04912 25-304 limits assumed): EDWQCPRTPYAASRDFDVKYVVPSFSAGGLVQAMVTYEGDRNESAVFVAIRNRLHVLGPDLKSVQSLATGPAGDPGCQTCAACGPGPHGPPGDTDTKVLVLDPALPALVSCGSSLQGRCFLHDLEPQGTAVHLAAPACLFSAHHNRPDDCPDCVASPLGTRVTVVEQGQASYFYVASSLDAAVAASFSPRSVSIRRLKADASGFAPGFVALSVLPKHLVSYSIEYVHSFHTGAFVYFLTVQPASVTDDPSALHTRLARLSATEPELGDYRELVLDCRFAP
Chain of Macrophage-stimulating protein receptor (Homo sapiens) (Q04912 310-1400 limits assumed): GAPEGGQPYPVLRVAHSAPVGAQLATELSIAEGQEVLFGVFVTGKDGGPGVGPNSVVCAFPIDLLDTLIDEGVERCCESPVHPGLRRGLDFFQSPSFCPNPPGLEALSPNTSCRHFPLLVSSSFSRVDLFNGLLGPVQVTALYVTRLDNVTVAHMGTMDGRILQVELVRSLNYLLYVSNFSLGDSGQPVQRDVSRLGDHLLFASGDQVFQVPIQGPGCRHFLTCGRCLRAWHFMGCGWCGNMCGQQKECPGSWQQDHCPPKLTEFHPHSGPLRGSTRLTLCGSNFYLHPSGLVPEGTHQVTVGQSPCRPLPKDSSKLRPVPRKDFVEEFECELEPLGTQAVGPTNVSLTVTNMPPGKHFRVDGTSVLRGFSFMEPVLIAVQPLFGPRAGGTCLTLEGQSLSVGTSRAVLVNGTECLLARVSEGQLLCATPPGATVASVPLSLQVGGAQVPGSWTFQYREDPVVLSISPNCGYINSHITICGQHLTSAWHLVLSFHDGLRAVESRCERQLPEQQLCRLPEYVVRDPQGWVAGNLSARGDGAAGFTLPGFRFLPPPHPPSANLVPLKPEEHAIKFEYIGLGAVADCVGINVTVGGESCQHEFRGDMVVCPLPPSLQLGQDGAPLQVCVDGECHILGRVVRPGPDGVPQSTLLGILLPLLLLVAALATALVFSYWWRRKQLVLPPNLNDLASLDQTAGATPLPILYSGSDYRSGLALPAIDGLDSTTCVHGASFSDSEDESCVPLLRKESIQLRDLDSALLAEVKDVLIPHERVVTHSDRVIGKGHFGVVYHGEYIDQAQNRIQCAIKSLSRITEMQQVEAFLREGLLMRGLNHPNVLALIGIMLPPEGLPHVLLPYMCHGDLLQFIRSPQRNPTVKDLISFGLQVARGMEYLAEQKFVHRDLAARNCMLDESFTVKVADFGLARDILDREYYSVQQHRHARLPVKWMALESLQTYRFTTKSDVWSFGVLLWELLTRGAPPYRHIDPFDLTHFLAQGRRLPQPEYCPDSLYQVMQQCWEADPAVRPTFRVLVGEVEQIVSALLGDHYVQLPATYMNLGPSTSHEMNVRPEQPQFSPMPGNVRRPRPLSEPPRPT

[15] = molecular target: High affinity nerve growth factor receptor (Homo sapiens) (UniProt P04629); test: Inhibition of TrkA
Chain of High affinity nerve growth factor receptor (Homo sapiens) (P04629 33-796 limits assumed): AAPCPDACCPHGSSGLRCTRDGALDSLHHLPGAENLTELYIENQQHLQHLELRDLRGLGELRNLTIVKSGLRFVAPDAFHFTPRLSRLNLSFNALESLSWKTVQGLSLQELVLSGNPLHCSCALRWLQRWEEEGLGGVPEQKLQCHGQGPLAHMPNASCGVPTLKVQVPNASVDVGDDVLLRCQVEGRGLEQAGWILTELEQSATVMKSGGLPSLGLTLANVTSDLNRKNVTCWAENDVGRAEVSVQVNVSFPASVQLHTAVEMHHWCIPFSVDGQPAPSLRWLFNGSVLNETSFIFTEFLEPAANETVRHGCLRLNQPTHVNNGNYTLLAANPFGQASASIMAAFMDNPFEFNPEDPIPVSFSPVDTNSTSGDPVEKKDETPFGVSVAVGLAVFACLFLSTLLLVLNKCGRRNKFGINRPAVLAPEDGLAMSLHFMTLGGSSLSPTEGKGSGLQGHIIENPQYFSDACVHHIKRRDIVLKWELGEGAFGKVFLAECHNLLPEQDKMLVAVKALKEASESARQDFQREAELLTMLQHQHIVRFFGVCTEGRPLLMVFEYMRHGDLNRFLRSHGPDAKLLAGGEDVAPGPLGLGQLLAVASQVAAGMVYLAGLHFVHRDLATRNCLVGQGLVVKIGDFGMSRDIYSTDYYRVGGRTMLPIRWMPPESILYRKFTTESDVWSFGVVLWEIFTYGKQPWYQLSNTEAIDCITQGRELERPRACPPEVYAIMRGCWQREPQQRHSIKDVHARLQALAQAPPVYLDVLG

[16] = molecular target: BDNF/NT-3 growth factors receptor (Homo sapiens) (UniProt Q16620); test: Inhibition of TrkB
Chain of BDNF/NT-3 growth factors receptor (Homo sapiens) (Q16620 32-822 limits assumed): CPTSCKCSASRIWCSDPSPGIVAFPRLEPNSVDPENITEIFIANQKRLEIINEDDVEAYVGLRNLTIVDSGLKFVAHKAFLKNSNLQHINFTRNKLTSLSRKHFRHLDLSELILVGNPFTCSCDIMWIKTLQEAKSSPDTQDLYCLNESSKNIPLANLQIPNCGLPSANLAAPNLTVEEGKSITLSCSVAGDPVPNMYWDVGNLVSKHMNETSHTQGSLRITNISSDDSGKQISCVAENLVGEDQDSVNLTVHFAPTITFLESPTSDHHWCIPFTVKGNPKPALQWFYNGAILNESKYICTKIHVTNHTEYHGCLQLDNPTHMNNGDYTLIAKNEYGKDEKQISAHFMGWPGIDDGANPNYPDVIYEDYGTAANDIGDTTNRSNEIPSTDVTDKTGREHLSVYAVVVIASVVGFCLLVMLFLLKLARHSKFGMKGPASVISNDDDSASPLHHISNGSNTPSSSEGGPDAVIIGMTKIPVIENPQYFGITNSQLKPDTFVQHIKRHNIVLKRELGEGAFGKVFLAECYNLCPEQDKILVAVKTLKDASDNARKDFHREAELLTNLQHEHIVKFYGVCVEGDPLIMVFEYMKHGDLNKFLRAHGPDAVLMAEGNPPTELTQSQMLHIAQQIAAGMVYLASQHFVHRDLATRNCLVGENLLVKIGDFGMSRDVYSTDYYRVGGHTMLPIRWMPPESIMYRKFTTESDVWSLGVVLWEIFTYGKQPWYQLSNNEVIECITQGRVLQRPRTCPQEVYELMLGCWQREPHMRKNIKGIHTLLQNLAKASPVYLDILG

[17] = Plasma protein binding in mouse; type: ADME, cell-free; conditions: read-out: PPB (converted)
[18] = Permeability by PAMPA; type: ADME; conditions: read-out: permeability
[19] = Permeability across human Caco-2 cells; type: ADME, cell-based; conditions: read-out: permeability
[20] = Total clearance in iv dosed mouse; type: ADME, organism-based; conditions: in vivo
[21] = Total clearance in iv dosed rat; type: ADME, organism-based; conditions: in vivo
[22] = Total clearance in iv dosed dog; type: ADME, organism-based, Canis lupus familiaris; conditions: in vivo
[23] = Total clearance in iv dosed monkey; type: ADME, organism-based, Macaca mulatta; conditions: rhesus monkey, in vivo
[24] = Bioavailability in iv dosed mouse; type: ADME, organism-based; conditions: in vivo
[25] = Bioavailability in iv dosed rat; type: ADME, organism-based; conditions: in vivo
[26] = Bioavailability in iv dosed dog; type: ADME, organism-based, Canis lupus familiaris; conditions: in vivo
[27] = Bioavailability in iv dosed monkey; type: ADME, organism-based, Macaca mulatta; conditions: rhesus monkey, in vivo
[28] = molecular target: Cyclin-dependent kinase 2/cyclin E (Homo sapiens, UniProt P24941); test: Inhibition of CDK2/Cyclin E after 60 mins by fluorescence electrophoresis; type: protein-complex assay
cells = conditions: Mus musculus, Sal
[29] = molecular target: Insulin-like growth factor 1 receptor (Homo sapiens, UniProt P08069); test: Inhibition of IGF1R after 60 mins by fluorescence electrophoresis

Chain of Cytochrome P450 2D6 (P10635 whole entry): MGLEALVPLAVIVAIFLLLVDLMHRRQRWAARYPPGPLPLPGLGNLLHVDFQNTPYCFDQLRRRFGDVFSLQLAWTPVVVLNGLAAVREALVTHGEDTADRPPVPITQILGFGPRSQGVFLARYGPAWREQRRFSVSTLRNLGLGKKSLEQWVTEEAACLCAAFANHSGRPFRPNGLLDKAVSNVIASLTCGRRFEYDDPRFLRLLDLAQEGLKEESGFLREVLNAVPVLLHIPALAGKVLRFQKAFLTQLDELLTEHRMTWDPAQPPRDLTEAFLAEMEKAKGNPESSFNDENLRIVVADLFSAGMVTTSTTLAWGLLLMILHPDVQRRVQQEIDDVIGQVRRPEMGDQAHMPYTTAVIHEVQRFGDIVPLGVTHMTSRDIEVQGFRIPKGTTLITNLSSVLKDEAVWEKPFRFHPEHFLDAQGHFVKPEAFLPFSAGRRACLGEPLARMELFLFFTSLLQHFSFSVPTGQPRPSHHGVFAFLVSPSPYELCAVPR
Chain of Cytochrome P450 2C9 (P11712 whole entry): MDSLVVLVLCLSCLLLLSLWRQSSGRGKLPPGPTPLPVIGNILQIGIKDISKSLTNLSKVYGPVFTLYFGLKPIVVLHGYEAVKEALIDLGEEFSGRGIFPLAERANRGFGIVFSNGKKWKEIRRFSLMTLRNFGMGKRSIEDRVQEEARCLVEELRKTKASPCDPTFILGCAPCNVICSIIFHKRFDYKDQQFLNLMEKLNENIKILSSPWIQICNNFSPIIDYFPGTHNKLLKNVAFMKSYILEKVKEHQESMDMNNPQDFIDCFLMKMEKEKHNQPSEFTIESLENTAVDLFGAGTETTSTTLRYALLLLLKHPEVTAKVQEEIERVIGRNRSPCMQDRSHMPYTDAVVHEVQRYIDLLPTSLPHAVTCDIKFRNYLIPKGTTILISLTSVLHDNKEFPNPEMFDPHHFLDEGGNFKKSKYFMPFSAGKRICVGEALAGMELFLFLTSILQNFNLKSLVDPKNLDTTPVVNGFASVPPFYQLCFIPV

**Q.** For `C[C@@]1(C(=O)Nc2ccc(F)nc2)CCCN1c1nc(Nc2cc(C3CC3)n[nH]2)c2cccn2n1` [BMS-754807], which IC50 (Cytochrome P450 2C19) is on record?
**A.** 11 µM

**Q.** What about the IC50 (Cytochrome P450 2C9) of the same molecule?
**A.** 23 µM

**Q.** And the IC50 (Cytochrome P450 2D6)?
**A.** > 40 µM

**Q.** What about the IC50 (Cytochrome P450 1A2) of the same molecule?
**A.** > 40 µM

**Q.** And the IC50 [1]?
**A.** 22 nM

**Q.** And the TGI [2]?
**A.** 102%

**Q.** And the minimal effective dose [3]?
**A.** 6.25 mg/kg

**Q.** What about the Activity (Mus musculus [4]) of the same molecule?
**A.** 0.2 g

**Q.** What about the Activity (Mus musculus [5]) of the same molecule?
**A.** > 10%

**Q.** What about the inhibition in vivo at 3.125 mg/kg [6] of the same molecule?
**A.** 80%

**Q.** What about the inhibition in vivo at 6.25 mg/kg [7] of the same molecule?
**A.** 107%

**Q.** What about the inhibition in vivo at 12.5 mg/kg [8] of the same molecule?
**A.** 110%

**Q.** And the inhibition (Mus musculus [9])?
**A.** Active

**Q.** What about the inhibition (Mus musculus [10]) of the same molecule?
**A.** Active

**Q.** What about the Activity [11] of the same molecule?
**A.** Active

**Q.** What about the inhibition in vivo at 12.5 mg/kg [12] of the same molecule?
**A.** 115%

**Q.** And the inhibition [13]?
**A.** Active

**Q.** And the inhibition [14]?
**A.** Active

**Q.** What about the inhibition [15] of the same molecule?
**A.** Active

**Q.** What about the inhibition [16] of the same molecule?
**A.** Active

**Q.** And the fraction unbound [17]?
**A.** 0.015

**Q.** What about the Papp [18] of the same molecule?
**A.** 38.7 ×10⁻⁶ cm/s

**Q.** What about the Papp [19] of the same molecule?
**A.** 14.1 ×10⁻⁶ cm/s

**Q.** And the clearance [20]?
**A.** 113 mL/min/kg

**Q.** And the clearance [21]?
**A.** 20 mL/min/kg

**Q.** And the clearance [22]?
**A.** 3.5 mL/min/kg

**Q.** And the clearance [23]?
**A.** 41 mL/min/kg

**Q.** What about the bioavailability [24] of the same molecule?
**A.** 6%

**Q.** And the bioavailability [25]?
**A.** 30%

**Q.** What about the bioavailability [26] of the same molecule?
**A.** 59%

**Q.** And the bioavailability [27]?
**A.** 8%

**Q.** For `O=C(Nc1nccs1)[C@@H]1CCCN1c1nc(Nc2cc(C3CC3)[nH]n2)c2cccn2n1`, which IC50 [28] is on record?
**A.** 40 nM

**Q.** And the IC50 (cells)?
**A.** 69 nM

**Q.** Which IC50 [28] does the source give for `O=C(Nc1cccnc1)[C@@H]1CCCN1c1nc(Nc2cc(C3CC3)[nH]n2)c2cccn2n1` here?
**A.** 577 nM

**Q.** And the IC50 (cells)?
**A.** 39 nM

**Q.** Which IC50 [29] does the source give for `C[C@@]1(C(=O)Nc2cccnc2)CCCN1c1nc(Nc2cc(C3CC3)[nH]n2)c2cccn2n1` here?
**A.** 6 nM

**Q.** And the IC50 [28]?
**A.** 1430 nM

**Q.** What about the TGI [2] of the same molecule?
**A.** 76%

**Q.** What about the minimal effective dose [3] of the same molecule?
**A.** 25 mg/kg

**Q.** What about the Activity (Mus musculus [4]) of the same molecule?
**A.** 1.9 g

**Q.** What about the IC50 (cells) of the same molecule?
**A.** 24 nM

**Q.** For `C[C@@]1(C(=O)Nc2cnccn2)CCCN1c1nc(Nc2cc(C3CC3)[nH]n2)c2cccn2n1`, which TGI [2] is on record?
**A.** 113%

**Q.** And the minimal effective dose [3]?
**A.** 6.25 mg/kg

**Q.** And the Activity (Mus musculus [4])?
**A.** -3.6 g

**Q.** For `CN(C(=O)[C@@H]1CCCN1c1nc(Nc2cc(C3CC3)[nH]n2)c2cccn2n1)c1ccccc1`, which IC50 [28] is on record?
**A.** 200 nM

**Q.** For `C[C@@]1(C(=O)Nc2nccs2)CCCN1c1nc(Nc2cc(C3CC3)n[nH]2)c2cccn2n1`, which TGI [2] is on record?
**A.** 74%

**Q.** What about the minimal effective dose [3] of the same molecule?
**A.** 12.5 mg/kg

**Q.** What about the Activity (Mus musculus [4]) of the same molecule?
**A.** 0.3 g

**Q.** For `NC(=O)[C@H]1CCCN1c1nc(Nc2cc(C3CC3)[nH]n2)c2cccn2n1`, which IC50 [28] is on record?
**A.** 24 nM

**Q.** What about the IC50 (cells) of the same molecule?
**A.** 310 nM

**Q.** Which IC50 [28] does the source give for `NC(=O)[C@@H]1CCCN1c1nc(Nc2cc(C3CC3)[nH]n2)c2cccn2n1` here?
**A.** 2 nM

**Q.** And the IC50 (cells)?
**A.** 47 nM

**Q.** What does the source list for `Cc1ccc(NC(=O)[C@@H]2CCCN2c2nc(Nc3cc(C4CC4)[nH]n3)c3cccn3n2)cc1`?
**A.** IC50 [28]: 1420 nM; IC50 (cells): 426 nM

**Q.** With `O=C(Nc1ccccc1)[C@@H]1CCCN1c1nc(Nc2cc(C3CC3)[nH]n2)c2cccn2n1` as the molecule, how does the IC50 [28] read?
**A.** 322 nM

**Q.** What about the IC50 (cells) of the same molecule?
**A.** 133 nM

Reference: ChEMBL document CHEMBL1154171 (J Med Chem, 2009)
